From patent US20160075689A1, “POLYMERASE, ENDONUCLEASE, AND HELICASE INHIBITORS AND METHODS OF USING THEREOF” (THE BOARD OF TRUSTEES OF THE UNIVERSITY OF ARKANSAS, priority 2013, published 2016) come the findings set out here.

In assay [1] the target is T1, EndoG (Homo sapiens, UniProt Q14249).
T1 sequence (Q14249 49-297): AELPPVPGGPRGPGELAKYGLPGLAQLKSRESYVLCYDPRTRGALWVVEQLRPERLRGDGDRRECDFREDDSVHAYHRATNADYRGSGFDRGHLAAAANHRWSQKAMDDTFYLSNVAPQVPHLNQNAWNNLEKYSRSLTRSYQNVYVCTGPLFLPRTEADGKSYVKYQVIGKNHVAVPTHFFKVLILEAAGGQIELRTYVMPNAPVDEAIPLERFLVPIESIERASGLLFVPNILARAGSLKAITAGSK
Briefly: High-throughput EndoG screening assay. The assay is classed as biochemical. The protocol:
(§1) A reaction mixture was prepared in each well of a white 96-well plate (Costar, Corning, N.Y.) as follows: 0.25 μM Cy5.5-labeled oligonucleotide (described in US provisional patent filed Oct. 19, 2012, Ser. No. 61/716,097) 0.3 mM MgCl2, 10 mM Tris-HCl, pH 7.4, 1 μl DMSO containing 5 or 50 ng of test compound, and nuclease-free water for a total reaction volume of 100 μl. The background (negative control) and uninhibited EndoG samples were measured using DMSO only, or DMSO containing recombinant EndoG (4 μg/ml), respectively. After addition of EndoG, fluorescence intensity was kinetically measured on a Bio-Tek Synergy 4.0 plate reader at 37° C. and mean velocity (mRFU/min) within 20 min was automatically calculated by the plate reader. The background was subtracted prior to the calculation of EndoG activity (%). The percent of EndoG activity was calculated from the mean velocity of a compound divided by the mean velocity of DMSO with recombinant EndoG, and the obtained value multiplied by 100.

Assay [2] addresses T1, EndoG. Briefly: Plasmid incision assay. The settings on record: agarose gel, FIG. 9. The class given is biochemical. The protocol:
A reaction mixture was prepared containing 0.5 μg pECFP plasmid DNA, 2 mM CaCl2, 5 mM MgCl2, 10 mM Tris-HCl, pH 7.4, 0.5 mM dithiothreitol. The test compound [50 ng in DMSO (1 μl)] was added. Recombinant EndoG was then added to the final concentration of 200 ng/ml and the reaction was incubated for 1 h at 37° C. The reaction was terminated by adding 2 μl of 10 mM Tris-HCl, pH 7.4, 1% SDS, 25 mM EDTA, 7.2 mM bromophenol blue. The samples were run in 1% agarose gel in Tris-acetate-EDTA buffer (40 mM Tris, 20 mM acetic acid, 1 mM EDTA, pH 8), at 7 V/cm for 35 min, and DNA was stained with ethidium bromide. An EagleEye scanning densitometer (Stratagene, La Jolla, Calif.) was utilized to quantify the relative amount of endonuclease-treated plasmid DNA present in a covalently-closed circular (supercoiled) DNA, open circular DNA, or linear DNA, or in a digested form.

For assay [3], the target named is T2, DNase I (Homo sapiens, UniProt P24855).
T2 sequence (P24855 23-282): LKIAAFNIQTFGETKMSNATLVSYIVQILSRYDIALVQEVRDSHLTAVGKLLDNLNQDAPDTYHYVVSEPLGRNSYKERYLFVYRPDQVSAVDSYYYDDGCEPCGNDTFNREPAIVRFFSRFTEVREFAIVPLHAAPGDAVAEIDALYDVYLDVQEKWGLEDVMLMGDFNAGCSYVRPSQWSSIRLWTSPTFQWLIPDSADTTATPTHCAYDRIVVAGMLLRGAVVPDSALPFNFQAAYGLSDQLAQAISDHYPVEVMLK
Nature of the assay: Endonuclease screening assay, specificity. The class given is biochemical.
Excerpt: (§2) Specificity of a potential inhibitor is important for any in vitro or in vivo application, and generally defines the usefulness of an inhibitor. To determine specificity of the inhibitors for the two EndoG inhibitors, PNR-3-80 and PNR-3-82, their IC50 values for EndoG were compared using the screening assay with the IC50 values for two other endonucleases, DNase I and DNAse II (FIG. 11). These endonucleases were chosen because they represent the majority of endonuclease activity in most mammalian cells and because of their availability as pure enzymes.
as §1

In assay [4] the target is T3, DNase II (Homo sapiens, UniProt O00115).
T3 sequence (O00115 19-360): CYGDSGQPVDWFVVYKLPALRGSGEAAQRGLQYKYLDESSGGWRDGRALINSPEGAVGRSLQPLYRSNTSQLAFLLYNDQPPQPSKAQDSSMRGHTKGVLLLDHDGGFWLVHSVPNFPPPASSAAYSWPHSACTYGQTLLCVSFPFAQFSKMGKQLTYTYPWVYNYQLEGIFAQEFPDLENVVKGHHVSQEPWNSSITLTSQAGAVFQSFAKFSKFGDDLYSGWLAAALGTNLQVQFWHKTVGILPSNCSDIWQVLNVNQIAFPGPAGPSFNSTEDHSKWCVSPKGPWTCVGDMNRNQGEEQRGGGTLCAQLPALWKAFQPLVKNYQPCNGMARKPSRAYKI
Briefly: Endonuclease screening assay, specificity. The assay is classed as biochemical.
Excerpt: as §2, §1

Assay [5] concerns RNase A. Nature of the assay: Ribonuclease A activity in NRK-52E cell extract. The assay is classed as biochemical. The settings on record: 0.1 μM and 10 μM. The protocol: (§3) As a follow up to Example 8, the effects of the EndoG inhibitors PNR-3-80 and PNR-3-82, at 0.1 μM and 10 μM each, on the activities of four other enzymes including RNase A, protease, LDH, and SOD in NRK-52E cell extract were examined. NRK-52E cells were grown to ˜80% confluence in […]. The medium was aspirated and the cells were rinsed with ice cold 1×PBS, pH 7.4. The cells were lysed in 50 mM Tris-HCl, pH 7.4, 150 mM NaCl, 1% Triton X-100 for 10 min on ice and then briefly sonicated. Cell debris was removed by centrifugation at 13,000×g for 10 min at 4° C. The supernatant was collected and stored at −80° C. until use. LDH, Protease, Superoxide dismutase (SOD), and Ribonuclease A (RNase A) activities were measured by using CytoTox 96® Non-Radioactive Cytotoxicity Assay kit (Promega, Madison, Wis.), Protease Fluorescent Detection kit (Sigma-Aldrich, Saint Louis, Mo.), SOD determination kit (Sigma-Aldrich, Saint Louis, Mo.), and Ribonuclease A Detection kit (Sigma-Aldrich, Saint Louis, Mo.), respectively, according to the manufacturer's instructions.

The test system of assay [6] is protease. Nature of the assay: Protease activity in NRK-52E cell extract. The class given is biochemical. The settings on record: 0.1 μM and 10 μM. The protocol: as §3
Assay [7] has as its system LDH. Nature of the assay: LDH activity in NRK-52E cell extract. The settings on record: 0.1 μM and 10 μM. The class given is biochemical. The protocol:
as §3

In assay [8] the test system is SOD. Nature of the assay: SOD activity in NRK-52E cell extract. The class given is biochemical. The settings on record: 0.1 μM and 10 μM. How it is done:
as §3

For assay [9], the system named is 22Rv1 cells. Briefly: Cytoprotection against Cisplatin-induced cell death, LDH release assay. Conditions: Cisplatin 60 μM, inhibitor 50 μM. The class given is cell-based, human. The protocol:
To test cytotoxic activities of the inhibitors, human prostrate carcinoma epithelial 22Rv1 cells, which naturally express EndoG, were exposed to Cisplatin (60 μM) in the presence or absence of PNR-3-80 (50 μM) and cell death was measured by the LDH release assay.
Background: Release of lactate dehydrogenase indicates damage to the cell membrane.

The test system of assay [10] is EndoG-expressing PC3 cells. Briefly: Cytoprotection against Docetaxel-induced cell death, LDH release and TUNEL assays. Conditions: Docetaxel 80 μM, inhibitor 50 μM. The class given is cell-based, human. The protocol:
Docetaxel is an anti-cancer drug used to treat prostate cancer. Human invasive prostate cancer PC3 cells are known to be resistant to anticancer drugs. […] The resulting EndoG-expressing PC3 cells were exposed with Docetaxel (80 μM) in the absence or presence of the inhibitors, PNR-3-80 or PNR-3-82 (50 μM each). The cell death was measured by using two methods, LDH release assay and TUNEL assay. […]

The structures appear in SMILES notation. Several values for one entry are separate records, joined by “and”; a condition that tells them apart may be missing. Equal entries are not always repeated.

One may read the IC50 as the concentration at which inhibition is half-maximal. Turning to `O=C1NC(=S)NC(=O)C1=Cc1cn(C(=O)c2ccc3ccccc3c2)c2ccc(Cl)cc12` [PNR-3-80], the remaining activity at 1 µM in [1] (20 min, compound 1 μM, read-out: % EndoG activity in the presence of the compound) worked out at 36%. The IC50 in assay [1] (IC50 against EndoG, EndoG screening assay) is 671 nM and 670 nM; in [3] it was 11200 nM. In addition, the “protection of supercoiled plasmid DNA from degradation by EndoG” value in [2] is given as “significantly protected the plasmid DNA from degradation”. For the same molecule, the “effect on DNase II activity” value in assay [4] is reported as “did not have any effect”. Also, in assay [5], the “RNase A activity” value is “none of the two tested compounds had any inhibiting activity”. The protease activity entry in assay [6] is recorded as “none of the two tested compounds had any inhibiting activity”. Further, the LDH activity entry in [7] was “none of the two tested compounds had any inhibiting activity”. Moreover, the SOD activity entry in [8] was “none of the two tested compounds had any inhibiting activity”. Besides, the “inhibition of Cisplatin-induced cell death” value was “significant and complete inhibition” in assay [9]; “complete inhibition” in assay [9] (listed as P-NR-30). The “cytoprotection against Docetaxel-induced cell death” value in [10] is “cytoprotective”.
